Test results reported in ChEMBL document CHEMBL3351860, “Synthesis and SAR of thieno[3,2-b]pyridinyl urea derivatives as urotensin-II receptor antagonists” (Bioorg Med Chem Lett, 2014).

Assays:
Urotensin-2 receptor = biological target: T1, Urotensin-2 receptor (Homo sapiens, UniProt Q9UKP6); experiment: Displacement of europium-labeled urotensin-II from human urotensin-2 receptor expressed in HEK293 cells by TRF assay; type: cell-based
T1 sequence (Q9UKP6 whole entry): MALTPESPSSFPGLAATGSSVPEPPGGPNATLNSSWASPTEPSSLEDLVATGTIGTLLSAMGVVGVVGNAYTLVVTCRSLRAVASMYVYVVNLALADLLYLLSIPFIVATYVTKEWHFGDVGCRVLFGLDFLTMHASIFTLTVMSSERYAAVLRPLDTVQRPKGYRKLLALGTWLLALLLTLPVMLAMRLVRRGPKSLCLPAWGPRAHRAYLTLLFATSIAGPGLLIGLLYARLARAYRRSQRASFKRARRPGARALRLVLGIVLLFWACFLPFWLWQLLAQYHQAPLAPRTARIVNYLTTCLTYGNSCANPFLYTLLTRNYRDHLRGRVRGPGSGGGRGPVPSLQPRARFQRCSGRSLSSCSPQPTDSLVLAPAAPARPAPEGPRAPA

[1] = biological target: T2, Urotensin-2 receptor (Homo sapiens) (UniProt Q9UKP6); experiment: Displacement of europium-labeled urotensin-II from human urotensin-2 receptor expressed in HEK293 cells at 10 uM by TRF assay; type: cell-based
T2 sequence (whole entry): T1 sequence (Q9UKP6 whole entry)

[2] = Metabolic stability in human liver microsomes after 30 mins; type: ADME; settings: read-out: Stability
[3] = Metabolic stability in rat liver microsomes after 30 mins; type: ADME; settings: read-out: Stability
CYP3A4 = CYP3A4 (Homo sapiens, UniProt P08684); experiment: Inhibition of CYP3A4 (unknown origin) at 10 uM; type: ADME
Sequence of CYP3A4 (P08684 whole entry): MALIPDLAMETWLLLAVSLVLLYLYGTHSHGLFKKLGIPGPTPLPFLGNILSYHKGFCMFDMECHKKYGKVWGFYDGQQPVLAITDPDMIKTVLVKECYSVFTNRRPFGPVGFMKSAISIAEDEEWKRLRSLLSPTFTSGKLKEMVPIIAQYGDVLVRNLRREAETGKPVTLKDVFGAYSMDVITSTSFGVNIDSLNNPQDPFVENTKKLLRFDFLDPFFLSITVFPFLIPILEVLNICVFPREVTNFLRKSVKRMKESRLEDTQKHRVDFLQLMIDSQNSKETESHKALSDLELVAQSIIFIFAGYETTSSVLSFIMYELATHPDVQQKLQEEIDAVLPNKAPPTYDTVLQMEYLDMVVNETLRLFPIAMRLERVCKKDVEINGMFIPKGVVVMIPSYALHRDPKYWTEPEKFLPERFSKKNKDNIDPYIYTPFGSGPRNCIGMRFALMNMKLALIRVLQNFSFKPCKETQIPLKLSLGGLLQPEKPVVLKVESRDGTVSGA

[4] = biological target: Voltage-gated inwardly rectifying potassium channel KCNH2 (Homo sapiens, UniProt Q12809); experiment: Inhibition of human ERG by patch clam assay
Sequence of Voltage-gated inwardly rectifying potassium channel KCNH2 (Q12809 whole entry): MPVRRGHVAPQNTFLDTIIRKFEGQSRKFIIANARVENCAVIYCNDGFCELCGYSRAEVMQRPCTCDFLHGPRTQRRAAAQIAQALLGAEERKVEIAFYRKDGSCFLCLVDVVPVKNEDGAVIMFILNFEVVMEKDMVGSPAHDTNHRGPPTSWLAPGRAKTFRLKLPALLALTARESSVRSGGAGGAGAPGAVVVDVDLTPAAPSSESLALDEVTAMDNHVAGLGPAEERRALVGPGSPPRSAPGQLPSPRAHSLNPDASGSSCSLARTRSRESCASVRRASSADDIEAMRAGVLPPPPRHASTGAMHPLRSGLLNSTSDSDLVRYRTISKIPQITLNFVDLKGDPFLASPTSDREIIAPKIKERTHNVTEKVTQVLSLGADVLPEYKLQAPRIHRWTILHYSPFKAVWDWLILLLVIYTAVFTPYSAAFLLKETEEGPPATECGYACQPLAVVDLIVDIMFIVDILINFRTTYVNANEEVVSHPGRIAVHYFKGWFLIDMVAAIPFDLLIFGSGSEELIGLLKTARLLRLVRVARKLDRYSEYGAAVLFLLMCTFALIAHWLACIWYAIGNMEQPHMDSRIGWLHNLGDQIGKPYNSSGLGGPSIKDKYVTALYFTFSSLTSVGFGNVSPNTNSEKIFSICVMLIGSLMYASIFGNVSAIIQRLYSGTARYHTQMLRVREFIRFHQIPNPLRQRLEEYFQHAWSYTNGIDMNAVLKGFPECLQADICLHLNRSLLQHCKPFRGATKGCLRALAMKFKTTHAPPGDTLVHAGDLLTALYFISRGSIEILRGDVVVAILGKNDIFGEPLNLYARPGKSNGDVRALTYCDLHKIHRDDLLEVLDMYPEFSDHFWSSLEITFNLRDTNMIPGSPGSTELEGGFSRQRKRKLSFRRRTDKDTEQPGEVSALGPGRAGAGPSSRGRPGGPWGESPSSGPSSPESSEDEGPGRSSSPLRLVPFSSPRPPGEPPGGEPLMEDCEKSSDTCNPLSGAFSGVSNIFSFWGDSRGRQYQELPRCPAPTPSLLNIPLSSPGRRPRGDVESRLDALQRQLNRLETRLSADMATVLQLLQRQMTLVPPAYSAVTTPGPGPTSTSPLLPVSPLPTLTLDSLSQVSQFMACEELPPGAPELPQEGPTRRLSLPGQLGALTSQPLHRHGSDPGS

[5] = Permeability of the compound by PAMPA assay; type: ADME; settings: read-out: permeability

| SMILES | IC50 (Urotensin-2 receptor) | other results |
| --- | --- | --- |
| O=C(NCCN1CCC(O)(Cc2ccccc2)CC1)Nc1ccnc2ccoc12 | 450 nM |  |
| O=C(NCCN1CCC(O)(Cc2ccccc2)CC1)Nc1ccnc2c(Br)csc12 | 3220 nM |  |
| O=C(NCCN1CCC(O)(Cc2ccccc2)CC1)Nc1ccnc2cc(-c3ccccc3)sc12 |  | inhibition [1]: 47.3% |
| O=C(NCCN1CCC(O)(Cc2ccccc2)CC1)Nc1cc(-c2ccccc2)nc2ccsc12 |  | inhibition [1]: 25.4% |
| Cc1cc(NC(=O)NCCN2CCC(O)(Cc3ccccc3)CC2)c2cnn(C)c2n1 | 220 nM |  |
| O=C(NCCN1CCC(O)(Cc2ccccc2)CC1)Nc1ccnc2ccsc12 | 36 nM |  |
| O=C(NCCN1CCC(O)(Cc2ccccc2Br)CC1)Nc1ccnc2ccsc12 | 20 nM |  |
| Cc1ccccc1CC1(O)CCN(CCNC(=O)Nc2ccnc3ccsc23)CC1 | 20 nM |  |
| Cc1cc2nccc(NC(=O)NCCN3CCC(O)(Cc4ccccc4)CC3)c2s1 | 78 nM |  |
| O=C(NCCN1CCC(O)(Cc2ccccc2)CC1)Nc1ccnc2sccc12 | 930 nM |  |
| O=C(NCCN1CCC(O)(Cc2ccccc2)CC1)Nc1cc(Cl)nc2ccsc12 |  | inhibition [1]: 25.6% |
| O=C(NCCN1CCC(O)(Cc2ccc(F)cc2)CC1)Nc1ccnc2ccsc12 | 13 nM | remaining at 0.5 h [2]: 52%; remaining at 0.5 h [3]: 100%; inhibition at 10 µM (CYP3A4): > 10%; IC50 [4]: 5000 nM; Papp [5]: 0.027 ×10⁻⁶ cm/s |
| Cn1ccc2nccc(NC(=O)NCCN3CCC(O)(Cc4ccccc4)CC3)c21 | 600 nM |  |
| Cc1csc2c(NC(=O)NCCN3CCC(O)(Cc4ccccc4)CC3)ccnc12 | 1230 nM |  |
| O=C(NCCN1CCC(O)(Cc2cccc(Br)c2)CC1)Nc1ccnc2ccsc12 | 42 nM |  |
| Cn1cnc2c(NC(=O)NCCN3CCC(O)(Cc4ccccc4)CC3)ccnc21 | 2140 nM |  |
| CCc1cc(NC(=O)NCCN2CCC(O)(Cc3ccccc3)CC2)c2sccc2n1 | 60 nM |  |
| Cc1cccc(CC2(O)CCN(CCNC(=O)Nc3ccnc4ccsc34)CC2)c1 | 140 nM |  |
| Cc1ccc(CC2(O)CCN(CCNC(=O)Nc3ccnc4ccsc34)CC2)cc1 | 190 nM |  |
| Cc1cc(NC(=O)NCCN2CCC(O)(Cc3ccccc3)CC2)c2sccc2n1 | 26 nM |  |
| Cn1ccc2c(NC(=O)NCCN3CCC(O)(Cc4ccccc4)CC3)ccnc21 | 160 nM |  |
